In patent US20230263822A1, “MODULATION OF FACTOR 11 EXPRESSION” (Ionis Pharmaceuticals, Inc., priority 2008, published 2023):
Strand notation (5' to 3'): a small letter for the sugar, then the base; units joined by * are phosphorothioate-linked, units joined directly phosphodiester-linked; [ ] holds rarer units or linkages, { } end groups; capitals alone tell only the bases. e = 2'-O-(2-methoxyethyl) (MOE); [5mC] = 5-methylcytosine; d = 2'-deoxy (DNA)

Legend:
human Factor 11 mRNA [1] = assay: Antisense inhibition of human Factor 11 in HepG2 cells, lipofectin, 75 nM (Example 1); format: cell-based; details: 75 nM antisense oligonucleotide, ~24 h, relative to untreated control cells, gapmers targeted to SEQ ID NO: 1
Outline: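 HepG2 cells transfected via lipofectin with 75 nM antisense oligonucleotide (5-10-5 MOE gapmers, 20-mers, phosphorothioate, 5-methylcytidines), treated ~24 h. Factor 11 mRNA quantified by real-time PCR, normalised to RIBOGREEN total RNA; percent inhibition versus untreated cells.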

human Factor 11 mRNA [2] = assay: Dose-dependent antisense inhibition of human Factor 11 in HepG2 cells, lipofectin 9.375-150 nM (Example 2); format: cell-based; details: ~16 h
Method: Cells were plated at a density of 10,000 cells per well and transfected using lipofectin reagent with 9.375 nM, 18.75 nM, 37.5 nM, 75 nM, and 150 nM concentrations of antisense oligonucleotide, as specified in Table 3. After a treatment period of approximately 16 hours, RNA was isolated from the cells and Factor 11 mRNA levels were measured by quantitative real-time PCR. Human Factor 11 primer probe set RTS 2966 (forward sequence: […], incorporated herein as SEQ ID NO: 3; reverse sequence: […], incorporated herein as SEQ ID NO: 4; probe sequence: TTGTCTACTGAAGCACACCCAAACAGGGAX, incorporated herein as SEQ ID NO: 5) was used to measure mRNA levels. Factor 11 mRNA levels were adjusted according to total RNA content, as measured by RIBOGREEN. Results are presented as percent inhibition of Factor 11, relative to untreated control cells.

human Factor 11 mRNA [3] = assay: Antisense inhibition of human Factor 11 in HepG2 cells by microwalk gapmers, lipofectin, 75 nM (Example 3); format: cell-based; details: HepG2 cells, lipofectin, gapmers targeted to nucleobases 1062 to 1091 of SEQ ID NO: 1
Outline: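 HepG2 cells (10,000/well) were transfected via lipofectin with 75 nM 20-mer MOE gapmers (phosphorothioate, 5-methyl-C) for about 24 h. Factor 11 mRNA was measured by qRT-PCR, normalized to RIBOGREEN total RNA, and given as percent inhibition versus untreated cells.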

human Factor 11 mRNA [4] = assay: Dose-dependent inhibition of human Factor 11 in HepG2 cells, lipofectin 9.375-75 nM (Example 4); format: cell-based
Outline: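 HepG2 cells transfected via lipofectin with antisense oligonucleotide at 9.375, 18.75, 37.5 or 75 nM for about 16 h. Factor 11 mRNA quantified by real-time RT-PCR (primer probe set RTS 2966) and normalized to total RNA (RIBOGREEN). Results expressed as percent inhibition versus untreated cells.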

human Factor 11 mRNA [5] = assay: Dose-dependent inhibition of human Factor 11 in HepG2 cells, electroporation 0.7-20 uM (Example 4); format: cell-based
Outline: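 HepG2 cells electroporated with antisense gapmers at 0.7, 2.2, 6.7 and 20 μM, treated ~16 h. Factor 11 mRNA quantified by qRT-PCR (primer probe set RTS 2966), normalised to RIBOGREEN total RNA; expressed as percent inhibition versus untreated control cells.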

human Factor 11 mRNA [6] = assay: Antisense inhibition of human Factor 11 in HepG2 cells, electroporation, 8,000 nM (Example 30); format: cell-based; details: electroporation, 8,000 nM antisense oligonucleotide
Outline: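 HepG2 cells electroporated with 8,000 nM 5-10-5, 5-8-5 or 6-8-6 MOE gapmers (phosphorothioate, 5-methylcytidine), ~24 h. Factor 11 mRNA quantified by qRT-PCR, normalised to RIBOGREEN total RNA. Reported as percent inhibition versus untreated cells.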

human Factor 11 mRNA [7] = assay: Dose-dependent inhibition of human Factor 11 in HepG2 cells, electroporation 123.46-10,000 nM (Example 31); format: cell-based; details: for Percent inhibition of Factor 11 mRNA at 123.47 nM / Percent inhibition of Factor 11 mRNA at 370.37 nM / IC50: electroporation; for Percent inhibition of Factor 11 mRNA at 123.47 nM / Percent inhibition of Factor 11 mRNA at 370.37 nM / Percent inhibition of Factor 11 mRNA at 1,111.11 nM / Percent inhibition of Factor 11 mRNA at 3,333.33 nM / Percent inhibition of Factor 11 mRNA at 10,000.0 nM: approx. 16 hours, relative to untreated control cells; for Percent inhibition of Factor 11 mRNA at 1,111.11 nM: electroporation, 1,111.11 nM; for Percent inhibition of Factor 11 mRNA at 3,333.33 nM: electroporation, 3,333.33 nM; for Percent inhibition of Factor 11 mRNA at 10,000.0 nM: electroporation, 10,000.0 nM; for IC50: Factor 11 mRNA expression
Method: Cells were plated at a density of 20,000 cells per well and transfected using electroporation with 123.46 nM, 370.37 nM, 1,111.11 nM, 3,333.33 nM and 10,000 nM concentrations of antisense oligonucleotide, as specified in Table 45. After a treatment period of approximately 16 hours, RNA was isolated from the cells and Factor 11 mRNA levels were measured by quantitative real-time PCR. Human Factor 11 primer probe set RTS 2966 was used to measure mRNA levels. Factor 11 mRNA levels were adjusted according to total RNA content, as measured by RIBOGREEN. Results are presented as percent inhibition of Factor 11, relative to untreated control cells.

[8] = Viscosity of ISIS antisense oligonucleotides, micro-viscometer at 25 °C (Example 47); format: physicochemical; details: for Concentration: concentration of the viscosity sample, UV reading at 260 nM at 85° C.; for Viscosity: in water, micro-viscometer at 25° C., at the concentration of the same line
Method: The viscosity of antisense oligonucleotides targeting human Factor 11 was measured with the aim of screening out antisense oligonucleotides which have a viscosity more than 40 cP at a concentration of 165-185 mg/mL.
ISIS oligonucleotides (32-35 mg) were weighed into a glass vial, 120 μL of water was added and the antisense oligonucleotide was dissolved into solution by heating the vial at 50° C. Part of (75 μL) the pre-heated sample was pipetted to a micro-viscometer (Cambridge). The temperature of the micro-viscometter was set to 25° C. and the viscosity of the sample was measured. Another part (20 μL) of the pre-heated sample was pipetted into 10 mL of water for UV reading at 260 nM at 85° C. (Cary UV instrument).

Substance | Percent inhibition of human Factor 11 mRNA levels (human Factor 11 mRNA [6]) [%] | Percent inhibition of Factor 11 mRNA at 123.47 nM (human Factor 11 mRNA [7]) [%] | Percent inhibition of Factor 11 mRNA at 370.37 nM (human Factor 11 mRNA [7]) [%] | Percent inhibition of Factor 11 mRNA at 1,111.11 nM (human Factor 11 mRNA [7]) [%] | Percent inhibition of Factor 11 mRNA at 3,333.33 nM (human Factor 11 mRNA [7]) [%] | Percent inhibition of Factor 11 mRNA at 10,000.0 nM (human Factor 11 mRNA [7]) [%] | IC50 (human Factor 11 mRNA [7]) [nM] | Concentration [8] [mg/mL] | Viscosity [8] [cP] | other results
413476 (antisense eT*eT*eG*eA*eG*dA*dT*dT*d[5mC]*dT*dT*dT*dG*dG*dG*e[5mC]*e[5mC]*eA*eT*eT) [compound 413476] | – | – | – | – | – | – | – | – | – | % inhibition (human Factor 11 mRNA [1]): 88%; percent inhibition of Factor 11 at 9.375 nM (human Factor 11 mRNA [2]; 9.375 nM): 26%; percent inhibition of Factor 11 at 18.75 nM (human Factor 11 mRNA [2]; 18.75 nM): 44%; percent inhibition of Factor 11 at 37.5 nM (human Factor 11 mRNA [2]; 37.5 nM): 64%; percent inhibition of Factor 11 at 75 nM (human Factor 11 mRNA [2]; 75 nM): 73%; percent inhibition of Factor 11 at 150 nM (human Factor 11 mRNA [2]; 150 nM): 82%; IC50 (human Factor 11 mRNA [2]): 25 nM; % inhibition (human Factor 11 mRNA [3]): 93%; IC50 (human Factor 11 mRNA [4]): 21 nM; percent inhibition of Factor 11 at 9.375 nM (human Factor 11 mRNA [4]; 9.375 nM, relative to untreated control cells): 24%; percent inhibition of Factor 11 at 18.75 nM (human Factor 11 mRNA [4]; 18.75 nM, relative to untreated control cells): 58%; percent inhibition of Factor 11 at 37.5 nM (human Factor 11 mRNA [4]; 37.5 nM, relative to untreated control cells): 62%; percent inhibition of Factor 11 at 75 nM (human Factor 11 mRNA [4]; 75 nM, relative to untreated control cells): 77%; IC50 (human Factor 11 mRNA [5]): 900 nM; percent inhibition of Factor 11 at 0.7 μM (human Factor 11 mRNA [5]; 0.7 μM, relative to untreated control cells): 40%; percent inhibition of Factor 11 at 2.2 μM (human Factor 11 mRNA [5]; 2.2 μM, relative to untreated control cells): 69%; percent inhibition of Factor 11 at 6.7 μM (human Factor 11 mRNA [5]; 6.7 μM, relative to untreated control cells): 88%; percent inhibition of Factor 11 at 20 μM (human Factor 11 mRNA [5]; 20 μM, relative to untreated control cells): 93%
445498 (antisense eG*eG*eT*eG*e[5mC]*eA*d[5mC]*dA*dG*dT*dT*dT*d[5mC]*dT*eG*eG*e[5mC]*eA*eG*eG) [compound 445498] | 83 | 3 | 1 | 27 | 50 | 58 | 4800 | 157 | 21 | –
445504 (antisense eG*eG*e[5mC]*eA*eT*eT*dG*dG*dT*dG*d[5mC]*dA*d[5mC]*dA*eG*eT*eT*eT*e[5mC]*eT) [compound 445504] | 87 | 8 | 20 | 38 | 53 | 68 | 2700 | 139 | 20 | –
445505 (antisense e[5mC]*eG*eG*e[5mC]*eA*eT*dT*dG*dG*dT*dG*d[5mC]*dA*d[5mC]*eA*eG*eT*eT*eT*e[5mC]) [compound 445505] | 89 | 12 | 30 | 39 | 59 | 77 | 1800 | 155 | 9 | –
445509 (antisense e[5mC]*eG*eG*eA*e[5mC]*eG*dG*d[5mC]*dA*dT*dT*dG*dG*dT*eG*e[5mC]*eA*e[5mC]*eA*eG) [compound 445509] | 84 | – | – | – | – | – | – | 167 | >100 | –
